Measured values: ChEMBL document CHEMBL1201862, “PubChem BioAssay data set” (2004)
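Results reflect a 48-hour exposure of cells in 96-well plates to compound at five concentrations. Abbreviation: GI50, concentration required for 50% inhibition of growth.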 Calls of active or inactive are those of the source. Cut-off read from the data, not from the text of the source: active = GI50 up to about 1.1 µM and inactive = higher.

Columns and labels:
Experiment in all cases: inhibition of tumour cell growth, NCI panel, 48 h
DU-145 = test system: DU-145
EKVX = test system: EKVX
HCT-116 = test system: HCT-116
HOP-62 = test system: HOP-62
HOP-92 = test system: HOP-92
IGROV-1 = test system: IGROV-1
LOX IMVI = test system: LOX IMVI
MCF7 = test system: MCF7
MDA-MB-435 = test system: MDA-MB-435
NCI-H23 = test system: NCI-H23
NCI/ADR-RES = test system: NCI/ADR-RES
OVCAR-3 = test system: OVCAR-3
OVCAR-8 = test system: OVCAR-8
PC-3 = test system: PC-3
RXF 393 = test system: RXF 393
SF-268 = test system: SF-268
SK-MEL-28 = test system: SK-MEL-28
SK-MEL-5 = test system: SK-MEL-5
SNB-19 = test system: SNB-19
SNB-75 = test system: SNB-75

Measured: GI50

CCOC(=O)c1cn2c(n1)sc1cc(F)ccc12
inactive: DU-145 > 100 µM | EKVX > 100 µM | HCT-116 50.6 µM | HOP-62 29.5 µM | HOP-92 > 100 µM | IGROV-1 > 100 µM | LOX IMVI 80.7 µM | MCF7 46.9 µM | MDA-MB-435 42.3 µM | NCI-H23 > 100 µM | NCI/ADR-RES > 100 µM | OVCAR-3 > 100 µM | OVCAR-8 > 100 µM | PC-3 > 100 µM | RXF 393 85.1 µM | SF-268 82.2 µM | SK-MEL-28 > 100 µM | SK-MEL-5 > 100 µM | SNB-19 > 100 µM | SNB-75 58.5 µM
